According to ChEMBL document CHEMBL5500360, “Discovery of N-(4-((6-(3,5- Dimethoxyphenyl)-9H-purine derivatives as irreversible covalent FGFR inhibitors” (Eur J Med Chem, 2024):
The source made the active and inactive calls. No cut-off for these calls is given here.

Legend:
[1] = molecular target: Fibroblast growth factor receptor 3 (Homo sapiens, UniProt P22607); experiment: Inhibition of FGFR3 (unknown origin) by ELISA
MDA-MB-231 [2] = experiment: Cell cycle arrest in human MDA-MB-231 cells assessed as accumulation of G0-G1 phase cells at 2.5 uM incubated for 24 hrs by […]PI staining based flow cytometric analysis (reference value: 41.83%); format: functional
MDA-MB-231 [3] = experiment: Cell cycle arrest in human MDA-MB-231 cells assessed as accumulation of S phase cells at 2.5 uM incubated for 24 hrs by […]PI staining based flow cytometric analysis (reference value: 41.29%); format: functional
MDA-MB-231 [4] = experiment: Cell cycle arrest in human MDA-MB-231 cells assessed as accumulation of S phase cells at 5 uM incubated for 24 hrs by […]PI staining based flow cytometric analysis (reference value: 41.29%); format: functional
MDA-MB-231 [5] = experiment: Cell cycle arrest in human MDA-MB-231 cells assessed as accumulation of G0-G1 phase cells at 10 uM incubated for 24 hrs by […]PI staining based flow cytometric analysis (reference value: 41.83%); format: functional
MDA-MB-231 [6] = experiment: Cell cycle arrest in human MDA-MB-231 cells assessed as accumulation of S phase cells at 10 uM incubated for 24 hrs by […]PI staining based flow cytometric analysis (reference value: 41.29%); format: functional
MDA-MB-231 [7] = experiment: Induction of apoptosis in human MDA-MB-231 cells assessed as late apoptotic cells at 2.5 uM incubated for 24 hrs by Annexin V-FITC/PI staining based flow cytometric analysis (reference value: 0.161 %); format: functional
MDA-MB-231 [8] = experiment: Induction of apoptosis in human MDA-MB-231 cells assessed as early apoptotic cells at 5 uM incubated for 24 hrs by Annexin V-FITC/PI staining based flow cytometric analysis (reference value: 0.131 %); format: functional
MDA-MB-231 [9] = experiment: Induction of apoptosis in human MDA-MB-231 cells assessed as late apoptotic cells at 5 uM incubated for 24 hrs by Annexin V-FITC/PI staining based flow cytometric analysis (reference value: 0.161 %); format: functional
MDA-MB-231 [10] = experiment: Induction of apoptosis in human MDA-MB-231 cells assessed as early apoptotic cells at 10 uM incubated for 24 hrs by Annexin V-FITC/PI staining based flow cytometric analysis (reference value: 0.131 %); format: functional
MDA-MB-231 [11] = experiment: Induction of apoptosis in human MDA-MB-231 cells assessed as apoptotic cells at 10 uM incubated for 24 hrs by Annexin V-FITC/PI staining based flow cytometric analysis relative to control; format: functional
MDA-MB-231 [12] = experiment: Induction of apoptosis in human MDA-MB-231 cells assessed as apoptotic cells at 5 uM incubated for 24 hrs by Annexin V-FITC/PI staining based flow cytometric analysis relative to control; format: functional
Cell membrane = experiment: Induction of mitochondrial membrane potential loss in human MDA-MB-231 cells assessed as increase in JC-1 monomer by measuring green fluorescence incubated for 12 hrs by confocal microscopic analysis; format: cell membranes; details: dose 2.5-10 µM
MDA-MB-231 [13] = experiment: Induction of apoptosis in human MDA-MB-231 cells assessed as inhibition of total PARP protein expression incubated for 24 hrs by Western blot analysis; format: functional, cell-based; details: dose 2.5-10 µM
MDA-MB-231 [14] = experiment: Induction of apoptosis in human MDA-MB-231 cells assessed as inhibition of Bcl-2 protein expression incubated for 24 hrs by Western blot analysis; format: functional, cell-based; details: dose 2.5-10 µM
MDA-MB-231 [15] = experiment: Effect on PLCgamma protein expression in human MDA-MB-231 cells at 5 to 10 uM incubated for 24 hrs by Western blot analysis; format: functional, cell-based; details: dose 5-10 µM
[16] = Metabolic stability in human liver microsomes assessed as parent compound remaining at 1 uM measured after 30 mins by LC-MS/MS analysis; format: ADME, Microsome; details: read-out: Stability
[17] = Metabolic stability in rat liver microsomes assessed as parent compound remaining at 1 uM measured after 5 mins by LC-MS/MS analysis; format: ADME, Microsome; details: read-out: Stability
[18] = Metabolic stability in rat liver microsomes assessed as parent compound remaining at 1 uM measured after 30 mins by LC-MS/MS analysis; format: ADME, Microsome; details: read-out: Stability
[19] = Metabolic stability in rat liver microsomes assessed as parent compound remaining at 1 uM measured after 45 mins by LC-MS/MS analysis; format: ADME, Microsome; details: read-out: Stability
[20] = Metabolic stability in mouse liver microsomes assessed as parent compound remaining at 1 uM measured after 5 mins by LC-MS/MS analysis; format: ADME, Microsome; details: read-out: Stability
[21] = Metabolic stability in mouse liver microsomes assessed as parent compound remaining at 1 uM measured after 45 mins by LC-MS/MS analysis; format: ADME, Microsome; details: read-out: Stability
[22] = Metabolic stability in human liver microsomes assessed as intrinsic clearance at 1 uM incubated for 45 mins by LC-MS/MS analysis; format: ADME, Microsome; details: read-out: CLH
[23] = Metabolic stability in rat liver microsomes assessed as half-life at 1 uM incubated for 45 mins by LC-MS/MS analysis; format: ADME, Microsome
[24] = Metabolic stability in mouse liver microsomes assessed as half-life at 1 uM incubated for 45 mins by LC-MS/MS analysis; format: ADME, Microsome
MDA-MB-231 [25] = experiment: Antitumor activity against human MDA-MB-231 cells xenografted in female BALB/c athymic nude mouse assessed as tumor growth inhibition at 10 mg/kg, po administered once a day via gavage for 21 days relative to control; format: functional; details: MDA-MB-231, 504 h, time 21 day, read-out: TGI
[26] = Toxicity in BALB/c athymic nude mouse xenografted with human MDA-MB-231 cells assessed as body weight loss at 10 to 30 mg/kg, po administered once a day via gavage for 21 days; format: organism-based; details: in vivo, 504 h, dose 10-30 mg/kg, time 21 day
[27] = Toxicity in BALB/c athymic nude mouse xenografted with human MDA-MB-231 cells assessed as effect on heart at 10 to 30 mg/kg, po administered once a day via gavage for 21 days by H and E staining based analysis; format: organism-based; details: in vivo, 504 h, dose 10-30 mg/kg, time 21 day
[28] = Toxicity in BALB/c athymic nude mouse xenografted with human MDA-MB-231 cells assessed as effect on lung at 10 to 30 mg/kg, po administered once a day via gavage for 21 days by H and E staining based analysis; format: organism-based; details: in vivo, 504 h, dose 10-30 mg/kg, time 21 day
HepG2 = experiment: cells; details: Homo sapiens, HepG2, 72 h

Chain of Fibroblast growth factor receptor 3 (P22607 whole entry): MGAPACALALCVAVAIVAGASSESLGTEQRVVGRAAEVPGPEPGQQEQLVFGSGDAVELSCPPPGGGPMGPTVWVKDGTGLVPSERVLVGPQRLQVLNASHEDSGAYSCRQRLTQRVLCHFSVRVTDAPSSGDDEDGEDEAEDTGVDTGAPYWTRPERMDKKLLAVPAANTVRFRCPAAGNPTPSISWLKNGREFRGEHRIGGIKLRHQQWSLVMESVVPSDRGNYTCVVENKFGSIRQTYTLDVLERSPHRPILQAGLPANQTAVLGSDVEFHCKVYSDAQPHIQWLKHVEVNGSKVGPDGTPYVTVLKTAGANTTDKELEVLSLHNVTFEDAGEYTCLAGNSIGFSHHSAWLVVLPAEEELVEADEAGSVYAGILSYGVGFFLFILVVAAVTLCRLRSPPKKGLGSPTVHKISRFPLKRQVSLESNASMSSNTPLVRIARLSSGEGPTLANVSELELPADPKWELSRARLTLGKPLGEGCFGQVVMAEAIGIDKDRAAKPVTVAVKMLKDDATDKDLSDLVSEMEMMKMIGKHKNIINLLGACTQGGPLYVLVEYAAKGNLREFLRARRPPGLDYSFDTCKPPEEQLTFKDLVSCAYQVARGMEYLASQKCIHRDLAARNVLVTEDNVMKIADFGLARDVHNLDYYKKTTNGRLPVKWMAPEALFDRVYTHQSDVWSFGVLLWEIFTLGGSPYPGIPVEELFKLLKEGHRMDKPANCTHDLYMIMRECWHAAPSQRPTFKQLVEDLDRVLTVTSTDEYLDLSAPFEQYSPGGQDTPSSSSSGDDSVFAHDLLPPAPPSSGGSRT

C=CC(=O)Nc1ccc(Cn2cnc3c(-c4cc(OC)cc(OC)c4)ncnc32)cc1 showed an IC50 [1] of 0.00064 µM, an Activity (MDA-MB-231 [2]) of 50.81% and an Activity (MDA-MB-231 [3]) of 34.25%. For the same compound, the Activity (MDA-MB-231 [4]) was 22.82%, the Activity (MDA-MB-231 [5]) was 73.78% and the Activity (MDA-MB-231 [6]) was 10.73%. For the same compound, the Activity (MDA-MB-231 [7]) was 6.16%, the Activity (MDA-MB-231 [8]) was 34.92% and the Activity (MDA-MB-231 [9]) was 14.25%. The Activity (MDA-MB-231 [10]) was 45.4%, the Activity (MDA-MB-231 [11]) was 56.8% and the Activity (MDA-MB-231 [12]) was 45.4%. The Activity (Cell membrane) was “Dose-Dependent Effect”, the Activity (MDA-MB-231 [13]) was “Dose-Dependent Effect” and the Activity (MDA-MB-231 [14]) was “Dose-Dependent Effect”. The Activity (MDA-MB-231 [15]) was “inactive”, the remaining at 0.5 h, 1 µM [16] was 43.7% and the remaining at 5 min, 1 µM [17] was 73.4%. The remaining at 0.5 h, 1 µM [18] was 18.6%, the remaining at 0.75 h, 1 µM [19] was 9.41% and the remaining at 5 min, 1 µM [20] was 61.5%. The remaining at 0.75 h, 1 µM [21] was 3.58%, the CLint scaled at 1 µM [22] was 2.52 L/h/kg and the half-life at 1 µM [23] was 15.9 min. The half-life at 1 µM [24] was 12.9 min, the inhibition in vivo at 10 mg/kg (MDA-MB-231 [25]) was 40.2% and the Activity [26] was “Non-Toxic”. For the same compound, the Activity [27] was “Non-Toxic”, the Activity [28] was “Non-Toxic” and the IC50 (HepG2) was 7.93 µM.
